Assay results: patent publication US4824834A, “Pyrazolotriazine compounds” (Otsuka Pharmaceutical Company, Limited, priority 1986, dated 1989)

Tests used:
uric acid in serum = experiment: Lowering effect of test compound on the level of uric acid in serum (in vivo, oral administration); set-up: species or system mouse (normal male ICR mice); conditions: Mus musculus, 4 hours after administration, male ICR mice, suspended in 0.5% CMC-Na, read-out: in vivo Lowering rate (%) of uric acid in serum (in 4 hours)
Protocol: Experiment 2 (In Vivo: Oral Administration)
(1) Animals, Method of Administration and Sampling of Serum
Normal male ICR mice (weighting about 30 g), were provided normal diet and tap water ad libitum. A test compound suspended in 0.5% CMC-Na was administered orally to the mice (each group: 6 mice) in a dose of 5 mg/kg.
(2) Measurement of Amount of Uric Acid in Serum
To the serum (200 μl) was added 10% perchloric acid (100 μl), and the mixture was centrifuged. To the supernatant fluid (100 μl) was added 0.2M Na2 HPO4 (200 μl), and the mixture (20 μl) was analyzed by HPLC to measure the amount of uric acid. The HPLC was carried out under the following conditions.
Column: Cosmosil packed column (.phi. 4.6 mm×150 mm, 5C18 -300)
(§1) Eluting solution: 10 mM phosphate buffer (pH 6.0)
(§2) Retention time: 2.4 minutes (uric acid)
(3) Lowering Effect of Test Compound on the Level of Uric Acid in Serum
The lowering rate of uric acid in serum was calculated by the following equation. [formula]

Xanthine oxidase = molecular target: T1, Xanthine oxidase (Mus musculus, UniProt Q00519); experiment: Xanthine oxidase inhibition (in vitro), mouse small intestine xanthine oxidase solution, HPLC of uric acid; type: biochemical, mouse (ICR strain mice; conditions: xanthine substrate, incubated at 37° C. for 5 minutes; HPLC UV 292 nm
T1 construct: The small intestine was homogenized in 4-fold volume of cooled phosphate buffered saline solution (PBS) and then centrifuged; from tissue; host or cells: small intestine of ICR strain mice; dialysed supernatant of a 105,000 g centrifugation
T1 sequence (Q00519 whole entry): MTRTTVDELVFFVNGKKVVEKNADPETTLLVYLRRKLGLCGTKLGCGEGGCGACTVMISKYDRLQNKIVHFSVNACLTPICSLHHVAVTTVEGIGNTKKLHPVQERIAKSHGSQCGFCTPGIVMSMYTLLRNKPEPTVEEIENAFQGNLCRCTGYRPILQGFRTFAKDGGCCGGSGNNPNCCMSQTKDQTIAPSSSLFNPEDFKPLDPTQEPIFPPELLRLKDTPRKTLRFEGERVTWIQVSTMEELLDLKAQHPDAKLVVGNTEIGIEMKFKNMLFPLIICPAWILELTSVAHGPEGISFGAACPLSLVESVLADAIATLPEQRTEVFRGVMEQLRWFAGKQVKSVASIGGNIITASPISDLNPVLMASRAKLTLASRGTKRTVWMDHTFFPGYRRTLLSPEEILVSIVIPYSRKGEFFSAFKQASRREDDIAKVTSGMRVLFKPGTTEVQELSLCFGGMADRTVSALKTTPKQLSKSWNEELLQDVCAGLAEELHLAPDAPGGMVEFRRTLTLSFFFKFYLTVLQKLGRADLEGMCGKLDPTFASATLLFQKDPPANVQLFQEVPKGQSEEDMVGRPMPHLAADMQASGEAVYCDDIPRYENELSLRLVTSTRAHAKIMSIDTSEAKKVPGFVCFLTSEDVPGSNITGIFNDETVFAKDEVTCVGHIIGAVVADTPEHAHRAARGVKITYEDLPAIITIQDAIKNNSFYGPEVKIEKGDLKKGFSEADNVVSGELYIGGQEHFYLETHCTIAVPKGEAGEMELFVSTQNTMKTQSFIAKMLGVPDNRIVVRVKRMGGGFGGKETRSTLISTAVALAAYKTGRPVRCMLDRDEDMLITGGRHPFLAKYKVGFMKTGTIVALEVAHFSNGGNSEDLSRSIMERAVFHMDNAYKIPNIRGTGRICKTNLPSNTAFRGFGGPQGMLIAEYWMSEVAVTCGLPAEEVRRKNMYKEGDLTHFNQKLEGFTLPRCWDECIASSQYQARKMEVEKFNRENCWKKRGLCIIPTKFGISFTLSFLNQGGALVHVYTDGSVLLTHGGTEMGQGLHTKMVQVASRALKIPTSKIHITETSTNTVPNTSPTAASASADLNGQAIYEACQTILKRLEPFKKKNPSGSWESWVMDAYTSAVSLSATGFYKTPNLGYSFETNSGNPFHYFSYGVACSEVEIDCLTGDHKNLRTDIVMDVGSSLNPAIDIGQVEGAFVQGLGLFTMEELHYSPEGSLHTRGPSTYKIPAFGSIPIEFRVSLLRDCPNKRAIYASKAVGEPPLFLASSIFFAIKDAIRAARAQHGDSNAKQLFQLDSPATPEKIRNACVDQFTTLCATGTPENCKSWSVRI
Protocol: (1) Preparation of Xanthine Oxidase Solution
ICR strain mice were decapitated and the small intestine of each mouse was rapidly perfused with cooled physiological saline solution and removed. The small intestine was homogenized in 4-fold volume of cooled phosphate buffered saline solution (PBS) and then centrifuged at 105,000 g for 60 minutes. The supernatant fluid was dialyzed overnight against PBS. The dialyzed solution thus prepared was stored at -20° C. until used.
(2) Preparation of the Solution Containing the Present Compound
The compound of this invention was dissolved in DMSO (200 μl) and 2N NaOH (100 μl), and then PBS was added to prepare a solution (25 ml) containing 10^-3 M of the compound of this invention. This solution was diluted with PBS to prepare solutions containing the compound in the concentration of 10^-4, 10^-5, 10^-6, 10^-7, 10^-8, 10^-9, 10^-10, and 10^-11 M, respectively.
(3) Method for the Measurement
The assay mixture, consisted of the composition mentioned below, was incubated at 37° C. for 5 minutes. The reaction was stopped by heating in boiling water for one minute. Twenty microliters of the supernatant was analyzed by high performance liquid chromatography (HPLC) under the conditions mentioned below.
Xanthine oxidase solution (diluted in 4-folds with PBS): 200 μl
Solution containing the present compound: 200 μl
Column: osmosil packed column (.phi. 4. mm×150 mm, 5C18×300)
as §1, §2
(4) Percent Inhibition of the Compound Against Xanthine Oxidase
The percent inhibition was calculated by the following equation. [formula]
As to each of the solutions containing the present compound as prepared in the above (2), the percent inhibition was calculted, and IC50 values were obtained from a plot of the percent inhibition against the log of the concentration of the compound of this invention.

IC50 (Xanthine oxidase) [nM]	Structure (SMILES)	inhibition in vivo at 5 mg/kg (uric acid in serum) [%]
0.45	CCc1cccc(NS(=O)(=O)c2ccc(-c3cnn4c(O)ncnc34)cc2)c1 [Example 97, 8-[4-(3-Ethylphenylaminosulfonyl)phenyl]-4-hydroxypyrazolo[1,5-a]-1,3,5-triazine]	
0.14	CC(C)c1ccc(NS(=O)(=O)c2ccc(-c3cnn4c(O)ncnc34)cc2)cc1 [Example 99, 4-Hydroxy-8-[4-(4-isopropylphenylaminosulfonyl)phenyl]pyrazolo[1,5-a]-1,3,5-triazine]	
0.75	CC(C)(C)c1ccc(NS(=O)(=O)c2ccc(-c3cnn4c(O)ncnc34)cc2)cc1 [Example 100, 8-[4-(4-t-Butylphenylaminosulfonyl)phenyl]-4hydroxypyrazolo[1,5-a]-1,3,5-triazine]	
54	CC(O)c1ccc(NS(=O)(=O)c2ccc(-c3cnn4c(O)ncnc34)cc2)cc1 (stereo not drawn) [Example 101, 4-Hydroxy-8-[4-(4-α-hydroxyethylphenylaminosulfonyl)phenyl]pyrazolo[1,5-a]-1,3,5-triazine]	
2.2	COC(=O)c1ccc(NS(=O)(=O)c2ccc(-c3cnn4c(O)ncnc34)cc2)cc1 [Example 105, 4-Hydroxy-8-[4-(4-methoxycarbonylphenylaminosulfonyl)phenyl]pyrazolo[1,5-a]-1,3,5-triazine]	
64	O=S(=O)(Nc1cccc(O)c1)c1ccc(-c2cnn3c(O)ncnc23)cc1 [Example 107, 4-Hydroxy-8-[4-(3-hydroxyphenylaminosulfonyl)phenyl]pyrazolo[1,5-a]-1,3,5-triazine]	
3.6	O=S(=O)(Nc1ccc(Cl)cc1)c1ccc(-c2cnn3c(O)ncnc23)cc1 [Example 109, 8-[4-(4-Chlorophenylaminosulfonyl)phenyl]-4hydroxypyrazolo[1,5-a]-1,3,5-triazine]	
6.5	COC(=O)c1ccc(NS(=O)(=O)c2ccc(-c3cnn4c(O)ncnc34)cc2)cc1O [Example 112]	
34	COC(=O)c1ccc(NS(=O)(=O)c2ccc(-c3cnn4c(O)ncnc34)cc2)cc1OC [Example 113, 4-Hydroxy-8-[4-(3-methoxy-4-methoxycarbonylphenylaminosulfonyl)phenyl]pyrazolo[1,5-a]-1,3,5-triazine]	
76	O=S(=O)(NCc1cccs1)c1ccc(-c2cnn3c(O)ncnc23)cc1 [Example 134, 4-Hydroxy-8-[4-(2-thienylmethylaminosulfonyl)phenyl]pyrazolo[1,5-a]-1,3,5-triazine]	
32	CN(C)S(=O)(=O)c1ccc(-c2cnn3c(O)ncnc23)cc1Cl [Example 136, 8-(3-Chloro-4-dimethylaminosulfonylphenyl)-4-hydroxypyrazolo[1,5-a]-1,3,5-triazine]	
39	Cc1cc(-c2cnn3c(O)ncnc23)ccc1S(=O)(=O)N(C)C [Example 138, 8-(4-Dimethylaminosulfonyl-3-methylphenyl)-4hydroxypyrazolo[1,5-a]-1,3,5-triazine]	
52	Cc1cc(-c2cnn3c(O)ncnc23)ccc1Br [Example 142, 8-(4-Bromo-3-methylphenyl)-4-hydroxypyrazolo[1,5-a]-1,3,5-triazine]	
36	Oc1ncnc2c(-c3ccc(Br)c(Cl)c3)cnn12 [Example 143, 8-(4-Bromo-3-chlorophenyl)-4-hydroxypyrazolo[1,5-a]-1,3,5-triazine]	
5	Oc1ncnc2c(-c3ccc(Sc4ccccc4)c(Cl)c3)cnn12 [Example 167, 8-(3-Chloro-4-phenylthiophenyl)-4-hydroxypyrazolo[1,5-a]-1,3,5-triazine]	

Second part, the compound before the results:

Structure (SMILES)	IC50 (Xanthine oxidase) [nM]	inhibition in vivo at 5 mg/kg (uric acid in serum) [%]
Oc1ncnc2[nH]ncc12 [Allopurinol, 4-hydroxypyrazolo[3,4-d]pyrimidine, reference compound]		34
CCSc1ccc(-c2cnn3c(O)ncnc23)cc1 [Example 17, 8-(4-Ethylthiophenyl)-4-hydroxypyrazolo[1,5-a]-1,3,5-triazine]	30	
Oc1ncnc2c(-c3ccc(Sc4ccccc4)cc3)cnn12 [Example 19, 4-Hydroxy-8-(4-phenylthiophenyl)pyrazolo[1,5-a]-1,3,5-triazine]	160	
Cc1ccc(Sc2ccc(-c3cnn4c(O)ncnc34)cc2)cc1 [Example 21, 4-Hydroxy-8-[4-(4-methylphenylthio)phenyl]pyrazolo[1,5-a]-1,3,5-triazine]	310	
CSc1ccc(-c2cnn3c(O)ncnc23)cc1C [Example 30, 4-Hydroxy-8-(3-methyl-4-methylthiophenyl)pyrazolo[1,5-a]-1,3,5-triazine]	71	47
CCSc1ccc(-c2cnn3c(O)ncnc23)cc1C [Example 31, 8-(4-Ethylthio-3-methylphenyl)-4-hydroxypyrazolo[1,5-a]-1,3,5-triazine]	10	63.5
Cc1cc(-c2cnn3c(O)ncnc23)ccc1Sc1ccccc1 [Example 33, 4-Hydroxy-8-(3-methyl-4-phenylthiophenyl)pyrazolo[1,5-a]-1,3,5-triazine]	18	62
CCc1cc(-c2cnn3c(O)ncnc23)ccc1SC [Example 39, 8-(3-Ethyl-4-methylthiophenyl)-4-hydroxypyrazolo[1,5-a]-1,3,5-triazine]	45	
CSc1ccc(-c2cnn3c(O)ncnc23)cc1SC [Example 41, 8-[(3,4-Bismethylthio)phenyl]-4-hydroxypyrazolo[1,5-a]-1,3,5-triazine]	24	60.1
CSc1ccc(-c2cnn3c(O)ncnc23)cc1Cl [Example 43, 8-(3-Chloro-4-methylthiophenyl)-4-hydroxypyrazolo[1,5-a]-1,3,5-triazine]	10	60.6
Oc1ncnc2c(-c3cc(Cl)c(OCc4ccccc4)c(Cl)c3)cnn12 [Example 52, 8-(4-Benzyloxy-3,5-dichlorophenyl)-4-hydroxypyrazolo[1,5-a]-1,3,5-triazine]	53	
Oc1ncnc2c(-c3cc(Cl)c(Cl)c(Cl)c3)cnn12 [Example 53, 4-Hydroxy-8-(3,4,5-trichlorophenyl)pyrazolo[1,5-a]-1,3,5-triazine]	15	
CSc1cc(F)c(-c2cnn3c(O)ncnc23)cc1C [Example 54, 8-(2-Fluoro-5-methyl-4-methylthiophenyl)-4hydroxypyrazolo[1,5-a]-1,3,5-triazine]	550	65.2
O=C(c1ccccc1)c1ccc(-c2cnn3c(O)ncnc23)cc1 [Example 70, 8-(4-Benzoylphenyl)-4-hydroxypyrazolo[1,5-a]-1,3,5-triazine]	5.2	
Cc1cc(-c2cnn3c(O)ncnc23)ccc1[N+](=O)[O-] [Example 73, 4-Hydroxy-8-(3-methyl-4-nitrophenyl)pyrazolo[1,5-a]-1,3,5-triazine]	40	
COc1cc(-c2cnn3c(O)ncnc23)ccc1[N+](=O)[O-] [Example 74, 4-Hydroxy-8-(3-methoxy-4-nitrophenyl)pyrazolo[1,5-a]-1,3,5-triazine]	50	
Cc1ccc(NS(=O)(=O)c2ccc(-c3cnn4c(O)ncnc34)cc2)cc1 [Example 95, 4-Hydroxy-8-[4-(4-methylphenylaminosulfonyl)phenyl]pyrazolo[1,5-a]-1,3,5-triazine]	3.6	
CCc1ccc(NS(=O)(=O)c2ccc(-c3cnn4c(O)ncnc34)cc2)cc1 [Example 96, 8-[4-(4-Ethylphenylaminosulfonyl)phenyl]-4-hydroxypyrazolo[1,5-a]-1,3,5-triazine]	0.1	
